From patent US8518952B2, “6 substituted 2-heterocyclylamino pyrazine compounds as CHK-1 inhibitors” (Pfizer Inc., priority 2008, dated 2013) come the findings set out here.

One assay has as its target T1, CHK1 (kinase domain) (Homo sapiens, UniProt O14757).
T1 construct: a solution containing 1 nM of CHK1 (kinase domain)
T1 sequence (O14757 9-265 limits assumed): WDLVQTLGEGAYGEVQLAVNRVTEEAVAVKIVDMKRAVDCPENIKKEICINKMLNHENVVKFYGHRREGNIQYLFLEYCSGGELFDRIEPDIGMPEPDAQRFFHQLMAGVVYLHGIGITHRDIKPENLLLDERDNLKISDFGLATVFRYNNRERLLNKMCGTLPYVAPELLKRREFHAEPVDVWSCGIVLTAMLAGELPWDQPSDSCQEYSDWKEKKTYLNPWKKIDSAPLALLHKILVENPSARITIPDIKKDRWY
As to the kind of experiment: CHK1 Ki determination, spectrophotometric coupled (pyruvate kinase/lactate dehydrogenase) assay. The format is biochemical. The following applies: CHK-1 kinase domain; 150 uM ATP, 125 uM Syntide 2. The procedure, abridged:
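Ki values, or % inhibition where no Ki was obtained, come from a tight-binding fit that uses active enzyme concentration and the ATP Km. Rates were followed as NADH loss at 340 nm, with ADP production coupled via pyruvate kinase and lactate dehydrogenase. Reactions with ATP (150 uM) and Syntide 2 (125 uM) were started after the CHK1 kinase domain had stood with inhibitor for 15 min.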

Another assay has as its system Mia Paca-2 cells. Put plainly: Histone H3 (Ser10) phosphorylation ELISA, abrogation of camptothecin-induced G2 arrest (CHK-1 cellular assay). The following applies: Homo sapiens, camptothecin 8 hrs, then compound with nocodozole 16 hours. The format is cell-based. The method, then:
The Histone H3 phosphorylation ELISA assay detects cells entering mitosis and represents the primary in vitro cell-based assay used to measure the cellular potency of compounds in abrogating the G2 check point induced by DNA damage in HeLa cells or MiaPaCa cells. The candidate substances were assayed for potency in their ability to inhibit camptothecin-induced G2 arrest, as measured by an increase in Histone H3 phosphorylation on Ser10, a marker of entry into mitosis.
The PathScan Phospho-Histone H3 (Ser10) Sandwich ELISA kit was used (Cell Signaling, #7155) and the assay was performed according to manufacturer recommendations. Tissue culture plates were seeded with HeLa cells or MiaPaCa Cells and allowed to attach overnight. The cells were then treated with camptothecin to induce DNA damage for 8 hrs. Candidate substances or diluent were then added in the presence of nocodozole for 16 hours. Cells were then lysed with buffer from Assay Designs (#80-1114) supplemented with protease inhibitors and frozen overnight. The fresh whole cell lysates were then thawed and added to the ELISA plate with shaking for 3 hours. Between all subsequent steps plates were washed 4 times with PBST. Biotinylated phospho Histone H3 (ser10) detection antibody was added for 1 hour, followed by addition of horseradish peroxidase-linked streptavidin secondary antibody for 1 hour. Color development of the antibody was performed with addition of TMB substrate and incubation for 2 minutes on a plate shaker. Stop solution was added and plates were read with absorbance at 450 nm on a spectrophotometer. EC50 values were calculated by sigmoid curve fitting using a four-parameter analysis.
Under the “Ki” column, data entries in the format of “%” are percent inhibition data where no Ki data is available. Data entry under the “EC50” column with an * are data obtained using Mia Paca-2 cells rather than HeLa cells. Data is not available where noted as n/a.
(In general: In an ELISA, binding on a coated surface is turned into a signal by an enzyme label.)

The test system of another assay is HeLa cells. The description is as above. It is filed as cell-based. The following applies: Homo sapiens, HeLa, HeLa cells; camptothecin 8 hrs, then compound with nocodozole 16 hours; read-out: EC50. The essentials:
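HeLa cells, or MiaPaCa-2 where marked, received camptothecin for 8 h, then compound with nocodazole for 16 h. Ser10-phosphorylated histone H3 in lysates was measured by ELISA with a biotinylated antibody, streptavidin-HRP and TMB. EC50 came from four-parameter sigmoid fits.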

The mark [1] stands for this setting: Mia Paca-2 cells (entries marked *).

A value given as a limit tells only on which side of the number the result lay.

The Ki is the dissociation constant of the complex between target and ligand, obtained from inhibition or displacement. One may read the EC50 as the concentration giving half of the maximal effect. Take `c1cn2c(-c3cncc(N[C@@H]4CCCNC4)n3)cnc2cn1` [Example 4, 6-Imidazo[1,2-a]pyrazin-3-yl-N-[(3R)-piperidin-3-yl]pyrazin-2-amine]: the affinity on CHK1 (kinase domain) corresponds to a Ki of 0.00774 µM. Moreover, the half-maximal effective concentration (EC50) in the assay on Mia Paca-2 cells (setting [1]) was found to be 0.0928 µM. As to `Clc1ccc2ncc(-c3cncc(N[C@@H]4CCCNC4)n3)n2c1` [Example 5, 6-(6-Chloroimidazo[1,2-a]pyridin-3-yl)-N-[(3R)-piperidin-3-yl]pyrazin-2-amine], the Ki at CHK1 (kinase domain) was 0.00249 µM. The compound also yielded an EC50 in the assay on Mia Paca-2 cells (MIA PaCa-2, Mia Paca-2 cells (entries marked *)) of 0.0183 µM. Compound `COc1ccc2ncc(-c3cncc(N[C@@H]4CCCNC4)n3)n2c1` [Example 7, 6-(6-Methoxyimidazo[1,2-a]pyridin-3-yl)-N-[(3R)-piperidin-3-yl]pyrazin-2-amine] yielded a Ki at CHK1 (kinase domain) of 0.00165 µM. Moreover, it took 0.0167 µM to reach a half-maximal effect with Mia Paca-2 cells (setting [1]) (EC50). On to `FC(F)(F)c1ccc2ncc(-c3cncc(N[C@@H]4CCNC4)n3)n2c1` [Example 13, N-[(3R)-pyrrolidin-3-yl]-6-[6-(trifluoromethyl)imidazo[1,2-a]pyridin-3-yl]pyrazin-2-amine], for which the affinity on CHK1 (kinase domain) corresponds to a Ki of 0.0128 µM. This compound also came in with an EC50 in the assay with Mia Paca-2 cells (setting [1]) of 0.513 µM.

`C[C@@H]1CNC[C@@H]1Nc1cncc(-c2cnc3ccc(C(C)(C)O)cn23)n1` [Example 14, 2-[3-(6-{[(3R,4R)-4-methylpyrrolidin-3-yl]amino}pyrazin-2-yl)imidazo[1,2-a]pyridin-6-yl]propan-2-ol] returned a Ki on CHK1 (kinase domain) of 0.0336 µM. Besides, the EC50 in the assay on Mia Paca-2 cells (setting [1]) is 4.21 µM. The compound `N#Cc1ccn2c(-c3cncc(N[C@@H]4C[C@@H]5CN[C@H]4C5)n3)cnc2c1` [Example 162, 3-{6-[(1S,4R,6R)-2-azabicyclo[2.2.1]hept-6-ylamino]pyrazin-2-yl}imidazo[1,2-a]pyridine-7-carbonitrile] displayed an EC50 in the assay with Mia Paca-2 cells (setting [1]) of 0.321 µM. At CHK1 (kinase domain), `Cc1ncc(-c2cnc3ccccn23)nc1N[C@@H]1CCNC1` [Example 223, 6-(imidazo[1,2-a]pyridin-3-yl)-3-methyl-N-[(3R)-pyrrolidin-3-yl]pyrazin-2-amine] displayed a Ki of 0.0681 µM. Besides, the EC50 in the assay with HeLa cells came out at 0.329 µM.

On CHK1 (kinase domain), `COc1ccc2c(c1)ncn2-c1cncc(N[C@@H]2CCCNC2)n1` [Example 224, 6-(5-methoxy-1H-benzimidazol-1-yl)-N-[(3R)-piperidin-3-yl]pyrazin-2-amine] yielded a Ki of 0.00239 µM. The 50% effective concentration (EC50) with HeLa cells turned out to be 0.0303 µM. The like results for `COC[C@@H]1C[C@@H](Nc2cncc(-c3cnc4ccc(Cl)cn34)n2)CN1` [Example 246, 6-(6-chloroimidazo[1,2-a]pyridin-3-yl)-N-[(3R,5S)-5-(methoxymethyl)pyrrolidin-3-yl]pyrazin-2-amine] were, in that order, 0.0353 µM and 0.229 µM. The like results for `FC1(F)CCNC[C@H]1Nc1cncc(-c2cnc3ccccn23)n1` [Example 248, N-[(3R)-4,4-difluoropiperidin-3-yl]-6-(imidazo[1,2-a]pyridin-3-yl)pyrazin-2-amine] were, in that order, 0.0453 µM and at least 10 µM.

At CHK1 (kinase domain), `FC1(F)CCNC[C@@H]1Nc1cncc(-c2cnc3ccccn23)n1` [Example 249, N-[(3S)-4,4-difluoropiperidin-3-yl]-6-(imidazo[1,2-a]pyridin-3-yl)pyrazin-2-amine] showed an inhibition constant (Ki) of 0.0045 µM. Further, the EC50 with HeLa cells worked out at 0.0322 µM. The like results for `C[C@H]1NCCC[C@H]1Nc1cncc(-c2cnc3cc(C#N)ccn23)n1` [Example 262, 3-(6-{[(2R,3R)-2-methylpiperidin-3-yl]amino}pyrazin-2-yl)imidazo[1,2-a]pyridine-7-carbonitrile] were, in that order, 0.0564 µM and 0.303 µM.

As to `N#Cc1ncc(N[C@@H]2CCNC2)nc1-c1cnc2ccccn12` [Example 267, 3-(imidazo[1,2-a]pyridin-3-yl)-5-[(3R)-pyrrolidin-3-ylamino]pyrazine-2-carbonitrile], the half-maximal effective concentration (EC50) in the assay on Mia Paca-2 cells (setting [1]) was 10 µM. In turn, `Cc1ncc(N[C@@H]2CCNC2)nc1-c1cnc2ccccn12` [Example 296, 6-(imidazo[1,2-a]pyridin-3-yl)-5-methyl-N-[(3R)-pyrrolidin-3-yl]pyrazin-2-amine] came in with an inhibition constant Ki at CHK1 (kinase domain) of 0.334 µM. Moreover, the EC50 in the assay with HeLa cells was determined as 4.08 µM.
